Columns and labels:
[1] = target: RAC-beta serine/threonine-protein kinase (Homo sapiens) (UniProt P31751); test: Inhibition of AKT2 (unknown origin) at 0.078 uM relative to control
[2] = target: T1, Interleukin-1 receptor-associated kinase 4 (Homo sapiens) (UniProt Q9NWZ3); test: Inhibition of IRAK4 (unknown origin) at 0.078 uM relative to control
T1 sequence (whole entry): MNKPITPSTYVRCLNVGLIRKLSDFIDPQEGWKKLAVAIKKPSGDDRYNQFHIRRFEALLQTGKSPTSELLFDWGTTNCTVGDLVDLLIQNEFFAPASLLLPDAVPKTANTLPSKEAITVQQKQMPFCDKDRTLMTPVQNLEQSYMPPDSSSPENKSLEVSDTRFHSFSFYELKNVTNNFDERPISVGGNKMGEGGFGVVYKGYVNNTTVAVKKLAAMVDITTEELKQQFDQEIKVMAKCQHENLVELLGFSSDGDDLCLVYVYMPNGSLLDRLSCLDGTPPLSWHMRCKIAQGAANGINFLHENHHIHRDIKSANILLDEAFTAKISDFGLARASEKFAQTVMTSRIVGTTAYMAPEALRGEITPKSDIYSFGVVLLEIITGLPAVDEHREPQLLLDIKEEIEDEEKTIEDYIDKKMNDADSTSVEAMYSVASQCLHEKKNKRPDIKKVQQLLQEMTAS

[3] = target: RAC-alpha serine/threonine-protein kinase (Homo sapiens) (UniProt P31749); test: Inhibition of AKT1 (unknown origin) at 0.078 uM relative to control
[4] = target: Tyrosine-protein kinase ABL2 (Homo sapiens) (UniProt P42684); test: Inhibition of Arg (unknown origin) at 0.49 uM relative to control
[5] = target: MAP/microtubule affinity-regulating kinase 4 (Homo sapiens) (UniProt Q96L34); test: Inhibition of MARK4 (unknown origin) at 0.49 uM relative to control
[6] = target: Vascular endothelial growth factor receptor 2 (Homo sapiens) (UniProt P35968); test: Inhibition of KDR (unknown origin) at 0.49 uM relative to control
[7] = target: Tyrosine-protein kinase ITK/TSK (Homo sapiens) (UniProt Q08881); test: Inhibition of ITK (unknown origin) at 0.49 uM relative to control
[8] = target: Cyclin-dependent kinase 2 (Homo sapiens) (UniProt P24941); test: Inhibition of CDK2 (unknown origin) at 0.49 uM relative to control
[9] = target: Tyrosine-protein kinase SYK (Homo sapiens) (UniProt P43405); test: Inhibition of SYK (unknown origin) at 0.49 uM relative to control
[10] = target: Tyrosine-protein kinase BTK (Homo sapiens) (UniProt Q06187); test: Inhibition of BTK (unknown origin) at 0.49 uM relative to control
[11] = target: Glycogen synthase kinase-3 alpha (Homo sapiens) (UniProt P49840); test: Inhibition of GSK3-alpha (unknown origin) at 0.49 uM relative to control
[12] = target: RAF proto-oncogene serine/threonine-protein kinase (Homo sapiens) (UniProt P04049); test: Inhibition of c-Raf (unknown origin) at 0.49 uM relative to control
[13] = target: Serine/threonine-protein kinase MARK2 (Homo sapiens) (UniProt Q7KZI7); test: Inhibition of MARK2 (unknown origin) at 0.49 uM relative to control
[14] = target: Cyclin-dependent kinase 1/cyclin B1 (Homo sapiens) (UniProt P06493+P14635); test: Inhibition of CDK1/CyclinB (unknown origin) at 0.49 uM relative to control; assay type: protein-complex assay
[15] = target: Dual specificity tyrosine-phosphorylation-regulated kinase 4 (Homo sapiens) (UniProt Q9NR20); test: Inhibition of DYRK4 (unknown origin) at 0.49 uM relative to control
[16] = target: Ephrin type-A receptor 8 (Homo sapiens) (UniProt P29322); test: Inhibition of EPHA8 (unknown origin) at 0.49 uM relative to control
[17] = target: Discoidin domain-containing receptor 2 (Homo sapiens) (UniProt Q16832); test: Inhibition of DDR2 (unknown origin) at 0.49 uM relative to control
[18] = target: Tyrosine-protein kinase ABL1 (Homo sapiens) (UniProt P00519); test: Inhibition of ABL (unknown origin) at 0.49 uM relative to control
[19] = target: Cyclin-dependent kinase 3 (Homo sapiens) (UniProt Q00526); test: Inhibition of CDK3 (unknown origin) at 0.49 uM relative to control
[20] = test system: Epidermal growth factor receptor (Homo sapiens), P00533 [L858R,T790M]; test: Inhibition of EGFR T790M/L858R double mutant (unknown origin) at 0.49 uM relative to control
[21] = target: Tyrosine-protein kinase ABL1 (Homo sapiens) (UniProt P00519); test: Inhibition of ABL (unknown origin) at 0.45 uM relative to control
[22] = target: PAS domain-containing serine/threonine-protein kinase (Homo sapiens) (UniProt Q96RG2); test: Inhibition of PASK (unknown origin) at 0.45 uM relative to control
[23] = target: Glycogen synthase kinase-3 alpha (Homo sapiens) (UniProt P49840); test: Inhibition of GSK3-alpha (unknown origin) at 0.45 uM relative to control
[24] = target: Dual specificity tyrosine-phosphorylation-regulated kinase 2 (Homo sapiens) (UniProt Q92630); test: Inhibition of DYRK2 (unknown origin) at 0.45 uM relative to control
[25] = target: T1, Interleukin-1 receptor-associated kinase 4 (Homo sapiens); test: Inhibition of IRAK4 (unknown origin) at 0.45 uM relative to control
[26] = test system: Hepatocyte growth factor receptor (Homo sapiens), P08581 [M1250T]; test: Inhibition of MET M1250T mutant (unknown origin) at 0.45 uM relative to control
[27] = target: CDK4/Cyclin D3 (Homo sapiens) (UniProt P11802+P30281); test: Inhibition of CDK4/CyclinD3 (unknown origin) at 0.45 uM relative to control; assay type: protein-complex assay
[28] = target: Dual specificity protein kinase CLK2 (Homo sapiens) (UniProt P49760); test: Inhibition of CLK2 (unknown origin) at 0.45 uM relative to control
[29] = target: Proto-oncogene tyrosine-protein kinase ROS (Homo sapiens) (UniProt P08922); test: Inhibition of ROS (unknown origin) at 0.45 uM relative to control
[30] = test system: Fibroblast growth factor receptor 4 (Homo sapiens), P22455 [V550L]; test: Inhibition of FGFR4 V550L mutant (unknown origin) at 0.45 uM relative to control
[31] = target: Rho-associated protein kinase 1 (Homo sapiens) (UniProt Q13464); test: Inhibition of ROCK1 (unknown origin) at 0.45 uM relative to control
[32] = target: Calcium/calmodulin-dependent protein kinase type II subunit beta (Homo sapiens) (UniProt Q13554); test: Inhibition of CaMK2-beta (unknown origin) at 0.45 uM relative to control
[33] = target: BDNF/NT-3 growth factors receptor (Homo sapiens) (UniProt Q16620); test: Inhibition of NTRK2 (unknown origin) at 0.45 uM relative to control
[34] = target: Serine/threonine-protein kinase PAK 5 (Homo sapiens) (UniProt Q9P286); test: Inhibition of PAK5 (unknown origin) at 0.45 uM relative to control

Chain of Tyrosine-protein kinase ABL1 (Homo sapiens) (P00519 whole entry, the tested form may be a part): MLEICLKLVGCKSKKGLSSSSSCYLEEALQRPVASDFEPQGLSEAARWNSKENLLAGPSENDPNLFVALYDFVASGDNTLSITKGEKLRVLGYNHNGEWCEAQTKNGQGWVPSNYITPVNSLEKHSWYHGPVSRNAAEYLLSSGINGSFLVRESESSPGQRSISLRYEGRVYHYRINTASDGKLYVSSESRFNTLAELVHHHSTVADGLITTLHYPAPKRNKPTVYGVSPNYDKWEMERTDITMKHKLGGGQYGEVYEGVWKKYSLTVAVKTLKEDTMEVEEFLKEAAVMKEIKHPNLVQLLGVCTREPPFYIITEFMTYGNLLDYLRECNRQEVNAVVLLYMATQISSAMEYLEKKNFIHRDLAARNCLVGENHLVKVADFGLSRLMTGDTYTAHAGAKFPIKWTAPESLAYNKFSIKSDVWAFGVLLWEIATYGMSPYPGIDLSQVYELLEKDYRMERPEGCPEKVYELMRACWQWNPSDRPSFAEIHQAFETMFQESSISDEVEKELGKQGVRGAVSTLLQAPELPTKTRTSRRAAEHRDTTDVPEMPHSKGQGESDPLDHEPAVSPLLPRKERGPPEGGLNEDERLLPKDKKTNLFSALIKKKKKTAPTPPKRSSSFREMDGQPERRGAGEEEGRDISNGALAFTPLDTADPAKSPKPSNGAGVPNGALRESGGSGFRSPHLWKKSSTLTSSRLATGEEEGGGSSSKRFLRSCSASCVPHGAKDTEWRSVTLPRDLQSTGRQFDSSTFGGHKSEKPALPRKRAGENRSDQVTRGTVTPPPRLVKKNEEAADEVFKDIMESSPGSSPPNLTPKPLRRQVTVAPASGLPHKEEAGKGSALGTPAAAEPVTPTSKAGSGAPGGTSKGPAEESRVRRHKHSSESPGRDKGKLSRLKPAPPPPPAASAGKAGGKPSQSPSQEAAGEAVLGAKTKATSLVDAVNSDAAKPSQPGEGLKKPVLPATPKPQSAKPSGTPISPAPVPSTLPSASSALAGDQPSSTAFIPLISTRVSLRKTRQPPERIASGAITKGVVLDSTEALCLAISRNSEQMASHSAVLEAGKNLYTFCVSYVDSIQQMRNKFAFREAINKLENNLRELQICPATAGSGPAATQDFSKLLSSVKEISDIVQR
Chain of Glycogen synthase kinase-3 alpha (Homo sapiens) (P49840 2-483 limits assumed): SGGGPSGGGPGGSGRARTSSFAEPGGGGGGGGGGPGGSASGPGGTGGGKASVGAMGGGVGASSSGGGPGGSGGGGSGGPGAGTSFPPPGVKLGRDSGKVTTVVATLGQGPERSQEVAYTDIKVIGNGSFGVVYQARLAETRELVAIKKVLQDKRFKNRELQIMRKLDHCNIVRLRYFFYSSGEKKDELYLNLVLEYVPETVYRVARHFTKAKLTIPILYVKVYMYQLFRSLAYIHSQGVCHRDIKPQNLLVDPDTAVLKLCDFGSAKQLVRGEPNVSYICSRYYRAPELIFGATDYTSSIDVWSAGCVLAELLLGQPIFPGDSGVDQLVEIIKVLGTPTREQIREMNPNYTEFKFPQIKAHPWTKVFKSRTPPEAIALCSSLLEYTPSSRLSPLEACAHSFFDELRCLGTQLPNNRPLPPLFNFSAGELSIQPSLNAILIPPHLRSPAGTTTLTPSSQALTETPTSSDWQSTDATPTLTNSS
Chain of MAP/microtubule affinity-regulating kinase 4 (Homo sapiens) (Q96L34 whole entry): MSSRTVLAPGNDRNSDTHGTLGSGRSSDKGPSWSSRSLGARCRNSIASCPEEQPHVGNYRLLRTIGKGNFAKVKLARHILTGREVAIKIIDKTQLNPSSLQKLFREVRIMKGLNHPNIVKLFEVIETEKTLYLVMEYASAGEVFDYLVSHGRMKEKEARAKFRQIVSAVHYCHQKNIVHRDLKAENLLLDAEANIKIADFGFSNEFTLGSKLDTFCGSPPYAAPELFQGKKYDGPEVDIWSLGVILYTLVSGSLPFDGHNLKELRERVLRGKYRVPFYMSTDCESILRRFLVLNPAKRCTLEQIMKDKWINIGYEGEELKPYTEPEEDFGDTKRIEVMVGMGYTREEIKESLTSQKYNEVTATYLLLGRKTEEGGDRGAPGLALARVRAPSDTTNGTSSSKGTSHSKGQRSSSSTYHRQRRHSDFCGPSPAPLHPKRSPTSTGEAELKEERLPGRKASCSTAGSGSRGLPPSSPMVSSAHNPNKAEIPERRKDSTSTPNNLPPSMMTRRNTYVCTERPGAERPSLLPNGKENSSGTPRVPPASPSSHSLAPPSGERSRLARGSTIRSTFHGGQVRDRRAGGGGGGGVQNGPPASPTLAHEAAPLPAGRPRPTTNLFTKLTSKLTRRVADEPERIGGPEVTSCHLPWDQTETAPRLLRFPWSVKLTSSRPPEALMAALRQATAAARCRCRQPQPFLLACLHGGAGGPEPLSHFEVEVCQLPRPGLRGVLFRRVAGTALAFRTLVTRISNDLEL
Chain of Cyclin-dependent kinase 3 (Homo sapiens) (Q00526 whole entry, looked up): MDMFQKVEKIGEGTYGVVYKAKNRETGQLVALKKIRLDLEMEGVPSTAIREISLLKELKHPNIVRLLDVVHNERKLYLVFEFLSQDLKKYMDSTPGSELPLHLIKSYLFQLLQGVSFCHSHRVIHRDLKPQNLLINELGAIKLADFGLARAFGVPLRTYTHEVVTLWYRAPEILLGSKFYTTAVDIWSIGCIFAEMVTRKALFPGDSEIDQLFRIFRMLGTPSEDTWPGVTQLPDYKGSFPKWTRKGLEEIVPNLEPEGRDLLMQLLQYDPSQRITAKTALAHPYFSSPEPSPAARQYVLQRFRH
Chain of Ephrin type-A receptor 8 (Homo sapiens) (P29322 whole entry, the tested form may be a part): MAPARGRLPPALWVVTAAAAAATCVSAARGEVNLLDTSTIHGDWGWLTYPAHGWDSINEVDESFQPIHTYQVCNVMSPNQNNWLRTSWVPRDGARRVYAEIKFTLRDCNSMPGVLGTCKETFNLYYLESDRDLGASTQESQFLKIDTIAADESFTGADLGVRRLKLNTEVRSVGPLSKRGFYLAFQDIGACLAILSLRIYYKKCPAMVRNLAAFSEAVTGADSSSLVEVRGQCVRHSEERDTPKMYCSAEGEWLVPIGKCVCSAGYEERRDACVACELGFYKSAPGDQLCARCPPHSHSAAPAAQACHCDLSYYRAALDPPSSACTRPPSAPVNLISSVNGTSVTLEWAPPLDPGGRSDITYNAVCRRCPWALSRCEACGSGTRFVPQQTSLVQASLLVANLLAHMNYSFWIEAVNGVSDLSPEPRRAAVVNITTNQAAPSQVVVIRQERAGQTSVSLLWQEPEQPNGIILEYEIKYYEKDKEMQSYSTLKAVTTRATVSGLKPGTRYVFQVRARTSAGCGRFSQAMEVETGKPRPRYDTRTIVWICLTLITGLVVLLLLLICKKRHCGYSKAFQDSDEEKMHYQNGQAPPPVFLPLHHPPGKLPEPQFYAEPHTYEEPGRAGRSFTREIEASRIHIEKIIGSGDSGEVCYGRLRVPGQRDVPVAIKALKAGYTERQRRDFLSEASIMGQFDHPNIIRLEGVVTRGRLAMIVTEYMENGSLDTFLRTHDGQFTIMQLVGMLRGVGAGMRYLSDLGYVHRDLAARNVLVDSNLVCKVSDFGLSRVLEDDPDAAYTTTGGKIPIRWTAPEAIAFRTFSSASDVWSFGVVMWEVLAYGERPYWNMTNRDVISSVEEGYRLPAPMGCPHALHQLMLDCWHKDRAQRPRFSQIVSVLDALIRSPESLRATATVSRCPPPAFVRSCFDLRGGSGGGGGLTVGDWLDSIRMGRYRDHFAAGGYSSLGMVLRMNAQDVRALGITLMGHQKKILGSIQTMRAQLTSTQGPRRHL
Chain of RAC-beta serine/threonine-protein kinase (Homo sapiens) (P31751 whole entry): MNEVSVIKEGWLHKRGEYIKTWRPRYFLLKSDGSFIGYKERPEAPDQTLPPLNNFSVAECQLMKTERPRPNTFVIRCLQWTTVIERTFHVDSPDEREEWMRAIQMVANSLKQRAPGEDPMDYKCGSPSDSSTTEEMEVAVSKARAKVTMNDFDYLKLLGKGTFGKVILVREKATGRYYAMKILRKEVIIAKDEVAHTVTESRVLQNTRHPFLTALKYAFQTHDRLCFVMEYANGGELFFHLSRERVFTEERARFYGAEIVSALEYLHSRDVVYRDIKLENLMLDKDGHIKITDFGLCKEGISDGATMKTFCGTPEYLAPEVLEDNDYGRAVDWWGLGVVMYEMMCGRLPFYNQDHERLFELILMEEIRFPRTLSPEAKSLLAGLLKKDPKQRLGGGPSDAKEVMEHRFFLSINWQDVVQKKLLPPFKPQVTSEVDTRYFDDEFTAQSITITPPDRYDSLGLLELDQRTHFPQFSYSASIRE
Chain of RAC-alpha serine/threonine-protein kinase (Homo sapiens) (P31749 whole entry): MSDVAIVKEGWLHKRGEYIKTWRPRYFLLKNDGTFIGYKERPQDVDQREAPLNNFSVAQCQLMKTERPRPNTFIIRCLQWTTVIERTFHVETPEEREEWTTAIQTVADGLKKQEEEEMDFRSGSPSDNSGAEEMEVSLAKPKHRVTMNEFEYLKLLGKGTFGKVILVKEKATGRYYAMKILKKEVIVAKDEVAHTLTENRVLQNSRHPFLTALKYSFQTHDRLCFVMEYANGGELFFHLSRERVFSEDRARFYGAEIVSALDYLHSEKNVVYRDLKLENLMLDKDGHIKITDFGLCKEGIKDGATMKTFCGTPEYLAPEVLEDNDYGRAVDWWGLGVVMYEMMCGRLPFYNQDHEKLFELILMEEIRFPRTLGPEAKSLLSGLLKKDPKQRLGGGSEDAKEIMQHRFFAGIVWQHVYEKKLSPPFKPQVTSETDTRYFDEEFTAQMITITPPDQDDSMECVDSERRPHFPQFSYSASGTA

COC(=O)Nc1noc2cc(-c3c(-c4ccccn4)n[nH]c3C)ccc12
inhibition [1]: 4% | inhibition [2]: 5.7% | inhibition [3]: -1%

Cc1[nH]nc(C2CC2)c1-c1ccc2c(NC(=O)C3CC3)noc2c1
inhibition [4]: 7.7% | inhibition [5]: 8.7% | inhibition [6]: 5% | inhibition [7]: -1% | inhibition [8]: 1.3% | inhibition [9]: 0.7% | inhibition [10]: 0.3% | inhibition [11]: 2% | inhibition [12]: 1% | inhibition [13]: -1% | inhibition [14]: 5.3% | inhibition [15]: 1.3% | inhibition [16]: -2.7% | inhibition [17]: 2% | inhibition [18]: 38.3% | inhibition [19]: 3.3% | inhibition [20]: -1%

Cc1n[nH]c(C)c1-c1ccc2c(NC(=O)c3ccc(N4CCN(C)CC4)cc3)n[nH]c2c1
inhibition [21]: 82% | inhibition [22]: -2% | inhibition [23]: -1% | inhibition [24]: 8% | inhibition [25]: 11% | inhibition [26]: 5% | inhibition [27]: -8.3% | inhibition [28]: 9% | inhibition [29]: 1.3% | inhibition [30]: 2.7% | inhibition [31]: -2% | inhibition [32]: -0.3% | inhibition [33]: 85.7% | inhibition [34]: 5.3%
